According to patent US20240358727A1, “MICROSCALE THERMOPHORESIS TO EVALUATE CHANNEL LIPID INTERACTIONS AND METHODS OF TREATING NAV CHANNELS RELATED DISEASES” (Northeastern University, priority 2023, published 2024):

Molecular target: T1, Nav1.4 (Rattus norvegicus, UniProt P15390)
T1 construct: expressed in transfected cells; host or cells: HEK293T (ATCC CRL-3216)
Test: Whole-cell patch clamp of rNav1.4 + Navβ1 in HEK293T cells with optogenetic PI-phosphatases and diC8PI(4,5)P2 in the pipette
Assay type: cell-based
Conditions: for ILATE: % of IPEAK
Source text: Purified diC8PI(4,5)P2 was purchased from Echelon Biosciences. For oocyte studies, plasmid vectors were linearized after the Xenopus β-globulin domain of each construct, verified by gel electrophoresis, and transcribed in vitro using the mMESSAGE mMACHINE T7 Transcription Kit (Thermo Fisher Scientific) to generate cRNA according to the manufacturer's protocol. Rat Nav1.4 (SCN4 Å; NM_013178.2) was handled in pBud, a CMV driven vector. To study Nav1.4 currents, the plasmid was used in concert with Navβ1 (SCN1B, isoform b; NM_001037) in pRAT, a CMV driven vector. The inactivation deficient mutant, Nav1.4-WCW was handled in pCap. CRY2-Sac2 was subcloned into pMAX(+) for expression in mammalian cells, or the generation of cRNA for use in Xenopus oocytes. The open reading frame of pseudojanin was designed with an N-terminal CRY2-tag in the pMAX(+) vector and was generated by Genscript (Piscataway, NY).
Human embryonic kidney (HEK293T) cells were acquired from American Type Culture Collection (ATCC, Cat #CRL-3216) and were maintained in Dulbecco's modified Eagle's medium (ATCC) supplemented with 100 units/ml penicillin, 100 μg/ml streptomycin, and 10% (vol/vol) fetal bovine serum. Cells were routinely confirmed to be mycoplasma free via PCR and Hoescht stain. The cells were incubated in a 37° C., humified incubator supplemented with 5% CO2. For our experiments, cells were seeded on glass coverslips in 35 mm culture dishes at least one day before transfection. Cells were transiently transfected with rNav1.4, Navβ1, CIBN-CAAX and CRY2-5-PtaseOCRL or CRY2-pseudojanin, along with the near-infrared PI(4,5)P2 biosensor iRFP-PHPLCδ1 as indicated, in OptiMEM using polyethyleneimine (PEI) for 1-2 hours at a ratio of 1 μg of DNA to 4 μL PEI. The near red fluorescent protein, mCherry, was typically used as a transfection marker. The cells were studied 24-48 hours after transfection.
Whole-cell patch clamp. HEK293T cells were studied by whole cell patch-clamp. Currents were recorded with a Tecella Pico-2 amplifier (Tecella) controlled using WinWCP software (University of Strathclyde). Currents were low pass (Bessel) filtered at 9 kHz and digitized at 50 kHz. […] The cells were perfused using a multichannel gravity-driven perfusion manifold (Warner) with an extracellular solution containing (in mM): 130 NaCl, 5 CsCl, 1.2 MgCl2·6H2O, 1.5 CaCl2), 8 Glucose, 10 HEPES. Data was collected from cells with a series resistance less than 15 MQ. The junction potential was less than 3 mV and was not compensated.
Current-voltage (I-V) relationships were evoked from a holding potential of −90 mV by 400 ms test pulses between −80 and 50 mV, in 5 mV increments. Steady-state inactivation was studied by holding the cells at −140 mV and then comparing currents evoked by 50 ms test pulses between −140 mV and 30 mV to those evoked by a 100 ms prepulse to […]. A 10 s interpulse interval was used in both cases. Normalized peak current values are plotted against the prepulse potential (mV). To quantify voltage-dependence, the data were normalized, plotted against the driving force to generate normalized conductance-voltage relationships (G-V) that were fit using a Boltzmann function, I=IMAX/(1+exp[V−V ½/K]), where IMAX is the maximum current and K is the slope factor. Recovery from fast inactivation was studied by holding cells at −100 mV and comparing currents evoked by a pair of 50 ms test step to −30 mV separated by an interpulse interval that increased in duration by 5 ms increments per sweep. The time constant for recovery from inactivation (τinact) was obtained from mono-exponential fits of the normalized current amplitude to the recovery time using It=Imax+A[e^−t/τ], where ‘A’ is the amplitude of components and ‘t’ is time. Whole-cell currents were normalized to cell capacitance. Mean±SEM capacitance values were 12±4 pF for HEK293T cells. […]

[1] = 200 μM diC8-PIP2 in patch pipette
[2] = 200 μM diC8PI(4,5)P2, CRY2-PJ cells
[3] = 200 μM diC8PI(4,5)P2 vs CRY2-PJ BL
[4] = CRY2-5POCRL, BL + 200 μM diC8PI(4,5)P2
[5] = CRY2-5POCRL, Control + 200 μM diC8PI(4,5)P2
[6] = CRY2-PJ, BL + 200 μM diC8PI(4,5)P2
[7] = CRY2-PJ, Control + 200 μM diC8PI(4,5)P2

T1 sequence (P15390 whole entry): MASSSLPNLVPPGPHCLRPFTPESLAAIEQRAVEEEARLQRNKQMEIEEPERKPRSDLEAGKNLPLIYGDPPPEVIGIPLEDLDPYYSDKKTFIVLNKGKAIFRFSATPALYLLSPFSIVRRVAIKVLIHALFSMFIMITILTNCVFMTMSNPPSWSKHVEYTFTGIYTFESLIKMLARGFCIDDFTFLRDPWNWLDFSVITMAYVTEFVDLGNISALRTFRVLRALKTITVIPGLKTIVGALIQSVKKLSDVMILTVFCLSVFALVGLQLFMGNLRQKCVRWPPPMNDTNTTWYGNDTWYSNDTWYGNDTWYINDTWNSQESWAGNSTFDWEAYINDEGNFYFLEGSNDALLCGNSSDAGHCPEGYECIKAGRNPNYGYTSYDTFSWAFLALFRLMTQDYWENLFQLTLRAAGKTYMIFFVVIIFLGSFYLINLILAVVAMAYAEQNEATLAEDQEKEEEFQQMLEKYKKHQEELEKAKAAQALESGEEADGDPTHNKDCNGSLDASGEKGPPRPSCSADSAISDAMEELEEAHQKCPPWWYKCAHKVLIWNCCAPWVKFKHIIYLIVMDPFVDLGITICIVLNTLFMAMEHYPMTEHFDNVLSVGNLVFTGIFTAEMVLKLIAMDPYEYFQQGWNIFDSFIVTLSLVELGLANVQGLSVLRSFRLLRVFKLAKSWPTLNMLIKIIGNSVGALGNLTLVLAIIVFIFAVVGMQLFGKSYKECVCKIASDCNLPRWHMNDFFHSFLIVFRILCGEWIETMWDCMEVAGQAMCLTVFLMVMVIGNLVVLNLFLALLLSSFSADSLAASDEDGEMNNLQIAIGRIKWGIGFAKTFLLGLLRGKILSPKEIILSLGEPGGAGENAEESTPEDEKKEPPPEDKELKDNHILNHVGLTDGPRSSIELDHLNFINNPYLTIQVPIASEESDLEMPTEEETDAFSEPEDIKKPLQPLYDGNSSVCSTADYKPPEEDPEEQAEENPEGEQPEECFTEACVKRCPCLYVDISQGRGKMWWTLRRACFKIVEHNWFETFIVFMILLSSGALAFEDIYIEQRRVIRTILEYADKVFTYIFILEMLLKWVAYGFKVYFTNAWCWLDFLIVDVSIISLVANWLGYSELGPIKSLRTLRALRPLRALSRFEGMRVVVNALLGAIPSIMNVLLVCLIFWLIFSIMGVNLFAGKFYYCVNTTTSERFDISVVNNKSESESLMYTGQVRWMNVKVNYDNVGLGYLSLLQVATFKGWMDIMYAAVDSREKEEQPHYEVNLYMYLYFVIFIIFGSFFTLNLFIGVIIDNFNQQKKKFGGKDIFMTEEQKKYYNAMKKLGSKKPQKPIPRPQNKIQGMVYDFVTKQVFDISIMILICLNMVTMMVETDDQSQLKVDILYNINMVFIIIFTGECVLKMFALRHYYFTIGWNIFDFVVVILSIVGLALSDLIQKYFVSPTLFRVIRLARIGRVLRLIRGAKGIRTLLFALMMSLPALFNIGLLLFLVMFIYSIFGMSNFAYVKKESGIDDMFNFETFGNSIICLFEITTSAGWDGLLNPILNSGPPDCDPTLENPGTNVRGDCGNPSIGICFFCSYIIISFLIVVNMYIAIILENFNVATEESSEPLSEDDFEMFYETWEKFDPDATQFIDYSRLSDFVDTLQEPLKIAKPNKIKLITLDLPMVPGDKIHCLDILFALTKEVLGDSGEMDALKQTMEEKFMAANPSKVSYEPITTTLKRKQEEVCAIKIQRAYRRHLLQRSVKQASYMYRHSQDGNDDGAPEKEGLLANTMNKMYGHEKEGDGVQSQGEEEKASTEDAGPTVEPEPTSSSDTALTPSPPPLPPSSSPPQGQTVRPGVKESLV
T1 sequence (Q07699 19-218 partner): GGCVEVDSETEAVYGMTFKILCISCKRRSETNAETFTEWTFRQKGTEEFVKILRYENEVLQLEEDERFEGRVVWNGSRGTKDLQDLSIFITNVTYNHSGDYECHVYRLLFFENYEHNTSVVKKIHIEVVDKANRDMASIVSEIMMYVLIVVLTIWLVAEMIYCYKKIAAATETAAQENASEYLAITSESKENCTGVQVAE

SMILES: CCCCCCCC(=O)OC[C@H](COP(=O)(O)O[C@@H]1[C@H](O)[C@H](O)[C@@H](OP(=O)(O)O)[C@H](OP(=O)(O)O)[C@H]1O)OC(=O)CCCCCCC [diC8-PIP2]
- effect on V½ACT of Nav1.4 [1]: rightward shift
- effect on V½SSI of Nav1.4 [1]: no effect
- effect on CRY2-5POCRL effects on voltage-dependent gating (200 μM diC8PI(4,5)P2): precluded
- effect on CRY2-PJ photoactivation effects on V½act (200 μM diC8PI(4,5)P2): ameliorated
- right shift in V½act (200 μM diC8PI(4,5)P2, CRY2-5POCRL cells): ~5 mV
- effect on increase in the magnitude of the window current (200 μM diC8PI(4,5)P2, CRY2-PJ): abolished
- right-shift in V½SSI compared to untreated cells [2]: ~3 mV
- right-shift in V½act compared to untreated cells [2]: −5.5 mV
- overall excursion in mean V½ACT between diC8PI(4,5)P2 treated cells and control cells after photoactivation (200 μM diC8PI(4,5)P2 vs CRY2-5POCRL BL): −12.5±3 mV
- change in mean V½act between diC8PI(4,5)P2 treated cells and control cells after dephosphorylation [3]: −16±2 mV
- shift in mean V½SSI between diC8PI(4,5)P2 treated cells and control cells after dephosphorylation [3]: −5.4±2 mV
- KAct [4]: 5.2 ± 0.3 mV
- KSSI [4]: −5.1 ± 1^ mV
- V½SSI [4]: −57 ± 1 mV
- V½act [4]: −32 ± 1 mV
- tau (fast inactivation) [4]: 7.4 ± 0.6 ms
- IPEAK (CRY2-5POCRL, BL + 200 μM diC8PI(4,5)P2, −20 mV): −268 ± 25 pA/pF
- IPEAK (CRY2-5POCRL, BL + 200 μM diC8PI(4,5)P2, −40 mV): −202 ± 21 pA/pF
- IPEAK (CRY2-5POCRL, BL + 200 μM diC8PI(4,5)P2, −60 mV): −19 ± 4 pA/pF
- ILATE [4]: 0.27 ± 0.02%
- KAct [5]: 5.0 ± 0.2 mV
- KSSI [5]: −5.0 ± 2^ mV
- V½SSI [5]: −58 ± 2 mV
- V½act [5]: −32 ± 1 mV
- tau (fast inactivation) [5]: 6.0 ± 0.3 ms
- IPEAK (CRY2-5POCRL, Control + 200 μM diC8PI(4,5)P2, −20 mV): −274 ± 32 pA/pF
- IPEAK (CRY2-5POCRL, Control + 200 μM diC8PI(4,5)P2, −40 mV): −186 ± 28 pA/pF
- IPEAK (CRY2-5POCRL, Control + 200 μM diC8PI(4,5)P2, −60 mV): −23 ± 6 pA/pF
- ILATE [5]: 0.26 ± 0.02%
- KAct [6]: 5.0 ± 1.0 mV
- KSSI [6]: −5.1 ± 0.5 mV
- V½SSI [6]: −54 ± 2 mV
- V½act [6]: −33 ± 4 mV
- tau (fast inactivation) [6]: 5.1 ± 0.3 ms
- IPEAK (CRY2-PJ, BL + 200 μM diC8PI(4,5)P2, −20 mV): −272 ± 24 pA/pF
- IPEAK (CRY2-PJ, BL + 200 μM diC8PI(4,5)P2, −40 mV): −209 ± 22 pA/pF
- IPEAK (CRY2-PJ, BL + 200 μM diC8PI(4,5)P2, −60 mV): −23 ± 3 pA/pF
- ILATE [6]: 0.38 ± 0.03%
- KAct [7]: 4.0 ± 0.7 mV
- KSSI [7]: −4.2 ± 1.0 mV
- V½SSI [7]: −55 ± 4 mV
- V½act [7]: −33 ± 3 mV
- tau (fast inactivation) [7]: 4.7 ± 0.2 ms
- IPEAK (CRY2-PJ, Control + 200 μM diC8PI(4,5)P2, −20 mV): −264 ± 18 pA/pF
- IPEAK (CRY2-PJ, Control + 200 μM diC8PI(4,5)P2, −40 mV): −194 ± 24 pA/pF
- IPEAK (CRY2-PJ, Control + 200 μM diC8PI(4,5)P2, −60 mV): −19 ± 2 pA/pF
- ILATE (CRY2-PJ, Control + 200 μM diC8PI(4,5)P2, pulse to −20 mV): 0.37 ± 0.1%
